Data on 10 compounds can be found in ChEMBL document CHEMBL1201862, “PubChem BioAssay data set” (2004).

Among the test systems are Hs-578T; MDA-MB-435; OVCAR-3; CCRF-CEM; UO-31; PC-3; SK-MEL-5; M14; SF-268; A549; HCT-116; DU-145; T47D; OVCAR-8; 786-0; IGROV-1; TK-10; HOP-92; SNB-75; MOLT-4.
Holding throughout (assay): DTP human tumour cell line panel, 48 h

Each structure is given as a SMILES string.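 Assay format: 96-well plates, 48-hour exposure. The concentration for 50% growth inhibition is given as GI50.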 Activity calls are given as the source filed them. Cut-off read from the data, not from the text of the source: active = GI50 up to about 1.1 µM and inactive = higher. A value given as a limit tells only on which side of the number the result lay.

On to `CCN(CC)CCOc1ccc(N2Cc3ccccc3C2=O)cc1`, for which the GI50 in the experiment with Hs-578T, in the experiment with MDA-MB-435, in the experiment on OVCAR-3, in the experiment with CCRF-CEM, in the experiment with UO-31 and in the experiment on PC-3 was > 10 µM (inactive) each time. Further, the GI50 in the experiment on SK-MEL-5, in the experiment with M14, in the experiment with SF-268, in the experiment on A549, in the experiment on HCT-116 and in the experiment on DU-145 was > 10 µM (inactive) each time. For the same compound, the GI50 in the experiment on T47D, with OVCAR-8, in the experiment with 786-0, with IGROV-1, in the experiment with TK-10 and in the experiment on HOP-92 was > 10 µM (inactive) in each case. Also, the GI50 in the experiment on SNB-75 and in the experiment with MOLT-4 was > 10 µM (inactive) in each case.

Regarding `COC(=O)c1ccccc1C1CN=NC12Cc1cc(C)c(C)cc1C2=O` (stereo not given), the GI50 is 45.5 µM (inactive) in the experiment with Hs-578T; 33.4 µM (inactive) in the experiment on MDA-MB-435; 27.5 µM (inactive) in the experiment on OVCAR-3; 24.1 µM (inactive) with CCRF-CEM; 30.3 µM (inactive) in the experiment on UO-31; 32.1 µM (inactive) in the experiment on PC-3. Also, the GI50 in the experiment on SK-MEL-5 is 18.7 µM (inactive); in the experiment on M14, 40.7 µM (inactive); in the experiment with SF-268, 28.9 µM (inactive); with A549, 37.8 µM (inactive); with HCT-116, 33.4 µM (inactive); in the experiment with DU-145, > 100 µM (inactive). The GI50 is 31.8 µM (inactive) in the experiment with T47D; 54.6 µM (inactive) in the experiment with OVCAR-8; 63.1 µM (inactive) in the experiment on 786-0; 55.2 µM (inactive) with IGROV-1; 25.8 µM (inactive) with TK-10; 28 µM (inactive) in the experiment on HOP-92. The GI50 is 29.9 µM (inactive) in the experiment with SNB-75 and 34.3 µM (inactive) in the experiment with MOLT-4.

For the compound `CC1(C)OCC(C2CCC3(C)C4=CCC5C(C)(C)C(O)CCC5(C)C4CCC23C)CC(O)C1O` (stereo not given), the GI50 in the experiment with Hs-578T was 19.9 µM (inactive); in the experiment on MDA-MB-435, 16.4 µM (inactive); with OVCAR-3, 14.6 µM (inactive); with CCRF-CEM, 25.8 µM (inactive); in the experiment with UO-31, 16.7 µM (inactive); with PC-3, 11.3 µM (inactive). Besides, the GI50 in the experiment on SK-MEL-5 was 15.1 µM (inactive); with M14, 16.9 µM (inactive); in the experiment on SF-268 it was 18.3 µM (inactive); in the experiment with A549, 16.5 µM (inactive); in the experiment on HCT-116, 13.2 µM (inactive); with DU-145, 14.7 µM (inactive). Moreover, the GI50 was 8.61 µM (inactive) in the experiment on T47D; 17.5 µM (inactive) in the experiment with OVCAR-8; 13.4 µM (inactive) in the experiment on 786-0; 18.7 µM (inactive) with IGROV-1; 13.6 µM (inactive) in the experiment with TK-10; 16.2 µM (inactive) in the experiment on HOP-92. Further, the GI50 is 15.1 µM (inactive) in the experiment with SNB-75 and 14.4 µM (inactive) in the experiment with MOLT-4.

On to `CCOC(=O)/C=C(\C(=O)OCC)n1cc(Cl)c(=O)n(CC(=O)OCC)c1=O`, for which the GI50 was 23.7 µM (inactive) with Hs-578T; 16.9 µM (inactive) with MDA-MB-435; 2.82 µM (inactive) in the experiment on OVCAR-3; 5.09 µM (inactive) with CCRF-CEM; 1.87 µM (inactive) in the experiment on UO-31; 14.5 µM (inactive) in the experiment with PC-3. In addition, the GI50 in the experiment on SK-MEL-5 was 15.7 µM (inactive); with M14, 3.4 µM (inactive); in the experiment with SF-268, 17.7 µM (inactive); in the experiment with A549, 19.9 µM (inactive); in the experiment on HCT-116, 2.19 µM (inactive); with DU-145 it was 17 µM (inactive). For the same compound, the GI50 in the experiment on T47D is 1.66 µM (inactive); in the experiment with OVCAR-8, 2.19 µM (inactive); with 786-0, 1.73 µM (inactive); with IGROV-1, 6.93 µM (inactive); in the experiment with TK-10 it was 1.89 µM (inactive); in the experiment on HOP-92, 1.85 µM (inactive). The GI50 in the experiment with SNB-75 is 18.7 µM (inactive); in the experiment on MOLT-4 it was 1.91 µM (inactive).

On to `O=C(O)c1cc2ccccc2c(/N=N\c2cc(C(F)(F)F)ccc2Cl)c1O`, for which the GI50 was 37.6 µM (inactive) with Hs-578T; > 100 µM (inactive) in the experiment on MDA-MB-435; 22.5 µM (inactive) in the experiment with OVCAR-3; 33.6 µM (inactive) with CCRF-CEM; 33.4 µM (inactive) in the experiment on UO-31; 48.6 µM (inactive) in the experiment with PC-3. In addition, the GI50 is 25.5 µM (inactive) in the experiment with SK-MEL-5; > 100 µM (inactive) in the experiment with M14; > 100 µM (inactive) in the experiment with SF-268; 27.9 µM (inactive) in the experiment on A549; 53.8 µM (inactive) in the experiment on HCT-116; 74.1 µM (inactive) in the experiment on DU-145. Further, the GI50 in the experiment with T47D was 48.8 µM (inactive); in the experiment with OVCAR-8 it was 60.8 µM (inactive); in the experiment with 786-0, 56.1 µM (inactive); with IGROV-1 it was 95.9 µM (inactive); in the experiment on TK-10, > 100 µM (inactive); in the experiment with HOP-92, 53.8 µM (inactive). Also, the 50% growth inhibitory concentration (GI50) is 0.0169 µM (active) with SNB-75 and 27.4 µM (inactive) with MOLT-4.

As to `CC[C@@]1(O)C(=O)OCc2c1cc1n(c2=O)Cc2cc3cc4c(cc3nc2-1)OCO4`, the GI50 with Hs-578T was 0.244 µM (active); in the experiment on MDA-MB-435, 0.0149 µM (active); with OVCAR-3, 0.0551 µM (active); with CCRF-CEM, < 0.001 µM (active); with UO-31, 0.00116 µM (active); in the experiment on PC-3, 0.00746 µM (active). Moreover, the 50% growth inhibitory concentration (GI50) is 0.00169 µM (active) in the experiment with SK-MEL-5; < 0.001 µM (active) with M14; < 0.001 µM (active) in the experiment with SF-268; 0.00144 µM (active) in the experiment with A549; 0.00167 µM (active) in the experiment on HCT-116; < 0.001 µM (active) in the experiment on DU-145. Further, the GI50 in the experiment with T47D was 0.0104 µM (active); with OVCAR-8, 0.00189 µM (active); with 786-0 it was < 0.001 µM (active); in the experiment with IGROV-1 it was 0.00948 µM (active); in the experiment on TK-10 it was 0.502 µM (active); in the experiment on HOP-92, 0.0026 µM (active). Besides, the GI50 with SNB-75 was 0.00148 µM (active); in the experiment with MOLT-4, < 0.001 µM (active).

Turning to `CCC1(O)CC(OC2CC(N(C)C)C(OC3CC(O)C(OC4CCC(=O)C(C)O4)C(C)O3)C(C)O2)c2c(O)c3c(c(O)c2C1C(=O)OC)C(=O)c1cccc(O)c1C3=O` (stereo not given), the GI50 is 0.00221 µM (active) with Hs-578T; 0.0067 µM (active) with MDA-MB-435; 0.0155 µM (active) in the experiment on OVCAR-3; 0.00176 µM (active) with CCRF-CEM; 0.00508 µM (active) in the experiment with UO-31; 0.00502 µM (active) in the experiment on PC-3. Moreover, the GI50 in the experiment on SK-MEL-5 was 0.00405 µM (active); in the experiment on M14, 0.01 µM (active); with SF-268, 0.0316 µM (active); in the experiment with A549 it was 0.00339 µM (active); in the experiment on HCT-116, 0.000396 µM (active); with DU-145, 0.00689 µM (active). The GI50 was 0.0154 µM (active) in the experiment on T47D; 0.00174 µM (active) in the experiment with OVCAR-8; 0.0016 µM (active) in the experiment on 786-0; 0.00178 µM (active) with IGROV-1; 0.015 µM (active) in the experiment on TK-10; 0.0344 µM (active) with HOP-92. Also, the GI50 was 0.00881 µM (active) in the experiment on SNB-75 and 0.00154 µM (active) in the experiment with MOLT-4.

For `CC(=O)N(C)c1ccc(/N=C/N(C)C)cc1`, the GI50 was > 10 µM (inactive) in the experiment on Hs-578T; > 100 µM (inactive) in the experiment with MDA-MB-435; 44 µM (inactive) in the experiment on OVCAR-3; > 100 µM (inactive) with CCRF-CEM; > 100 µM (inactive) with UO-31; > 100 µM (inactive) with PC-3. Moreover, the GI50 with SK-MEL-5, in the experiment on M14, in the experiment with SF-268, with A549, in the experiment on HCT-116 and with DU-145 was > 100 µM (inactive) in each case. The GI50 with T47D, in the experiment with OVCAR-8, with 786-0, in the experiment on IGROV-1, in the experiment on TK-10 and in the experiment with HOP-92 was > 100 µM (inactive) in each case. Further, the GI50 in the experiment on SNB-75 and in the experiment on MOLT-4 was > 100 µM (inactive) each time.

Consider `O=C(CCc1cc(O)cc(O)c1)NCCc1ccc(O)c(O)c1`, for which the GI50 in the experiment on Hs-578T is > 100 µM (inactive); in the experiment with MDA-MB-435, 21.6 µM (inactive); in the experiment with OVCAR-3 it was > 100 µM (inactive); in the experiment with CCRF-CEM, 17.3 µM (inactive); in the experiment on UO-31, > 100 µM (inactive); with PC-3, > 100 µM (inactive). For the same compound, the GI50 with SK-MEL-5, in the experiment on M14, in the experiment with SF-268, in the experiment with A549, in the experiment on HCT-116 and with DU-145 was > 100 µM (inactive) throughout. For the same compound, the GI50 with T47D, in the experiment on OVCAR-8, in the experiment with 786-0, in the experiment on IGROV-1, in the experiment with TK-10 and with HOP-92 was > 100 µM (inactive) each time. The GI50 in the experiment on SNB-75 and in the experiment with MOLT-4 was > 100 µM (inactive) each time.

Turning to `O[C@H]1[C@H](O)[C@@H](Cn2nnc(-c3ccccc3)c2-c2ccccc2)OCO[C@@H]1Cn1nnc(-c2ccccc2)c1-c1ccccc1`, the GI50 with Hs-578T was 6.85 µM (inactive); in the experiment with MDA-MB-435, 5.04 µM (inactive); in the experiment with OVCAR-3, 2.96 µM (inactive); with CCRF-CEM, 3.53 µM (inactive); with UO-31, 4.19 µM (inactive); with PC-3, 2.68 µM (inactive). Besides, the GI50 in the experiment with SK-MEL-5 is 4.32 µM (inactive); in the experiment on M14, 3.37 µM (inactive); in the experiment on SF-268, 4.85 µM (inactive); in the experiment on A549, 3.74 µM (inactive); in the experiment on HCT-116, 3.11 µM (inactive); with DU-145, 7.4 µM (inactive). Also, the GI50 in the experiment with T47D is 7.98 µM (inactive); with OVCAR-8, 4.01 µM (inactive); in the experiment with 786-0, 2.88 µM (inactive); in the experiment on IGROV-1, 3.65 µM (inactive); in the experiment on TK-10, 5.14 µM (inactive); in the experiment on HOP-92, 2.83 µM (inactive). The GI50 in the experiment on SNB-75 is 7.82 µM (inactive); with MOLT-4 it was 2.7 µM (inactive).

As usually defined, the GI50 is the concentration at which growth is held to half of that of the control.
